From paper PMC11234460, “In Silico Discovery of Stapled Peptide Inhibitor Targeting the Nur77‐PPARγ Interaction and Its Anti‐Breast‐Cancer Efficacy” (Advanced Science, 2024)
Where a SMILES comes first, the peptide text is derived from it. Bridges are numbered along the chain shown (N, C = ends). [ ]: non-standard residue; d: D form. S5 = C=CCCC[C@](C)(N)C(=O)O

Legend:
MCF7 cells [1] = assay: Energy metabolism analysis (Seahorse OCR); type: cell-based, human; conditions: MCF7, 24 h treatment, n = 3
Description: Cell energy metabolism analysis was conducted using a Seahorse cell energy metabolism analyzer (Agilent, USA). In brief, 8000 cells were seeded per well in a 96‐well XF96 plate (Agilent, 103794‐100) and cultured overnight. Subsequently, the cells were treated with various concentrations of peptides for 24 h. To prepare for metabolic stress injections, cartridge plates (Agilent, w15023) were hydrated with H2O for at least 12 h at 37 °C before the assay. 1 h before detection, the medium in each well was replaced with 180 µL XF calibrant solution (Agilent, 100840‐000), Afterward, the cell plate was replaced with 180 µL XF DMEM (Agilent, 103575‐100) with glucose (1 × 10^−2 M) (Agilent, 103577‐100), pyruvate (1 × 10^−3 M) (Agilent, 103578‐100) and glutamine (2 × 10^−3 M) (Agilent, 103579‐100) and the mixture was incubated in a CO2‐free incubator at 37 °C for 1 h. Then, 20 µL basic medium, 22 µL 1.5 × 10^−4 M oligomycin, 25 µL 1.5 × 10^−4 M FCCP, and 27 µL 5 × 10^−5 M ROT/AA (Agilent, 10315‐100) were added to wells A, B, C, and D, respectively, of the cartridge plates. The assay was carried out according to the manufacturer's instructions, and the OCR was reported in picomoles per min. The results were normalized to the cell number determined by the CCK‐8 assay.

MDA-MB-231 cells = assay: Cell viability assay (CCK-8); type: cell-based; conditions: MDA-MB-231, 5 × 10^−6 M, 24 h
Description: MCF7, MDA‐MB‐231, and MDA‐BoM‐1833 cells (5000 cells/well) were seeded in 96‐well plates and cultured overnight at 37°C and 5% CO2. The cells were then treated with fresh basic medium containing various concentrations (1/2/5/10/20 × 10^−6 M) of compounds. After 24 h of incubation, the cells were incubated with a basic medium containing 10% Cell Counting Kit‐8 (Dojindo, CK‐04) for 2 h. Cell viability was evaluated by measuring the absorbance at 450 nm. The formula used was [(As‐Ab)/(Ac‐Ab)] × 100%, where as represents the absorbance of the drug‐treated group, Ac represents the absorbance of the control group treated with medium, and Ab represents the absorbance of the blank control containing only medium.

[2] = CD spectroscopy, α-helicity; type: physicochemical; conditions: 5 × 10^−5 M peptide in H2O, 25 °C, 1 mm cuvette, 185-260 nm
Description: The detection wavelengths of the peptides were 214 and 254 nm. Solvent A: H2O (containing 0.1% TFA) and solvent B: acetonitrile (containing 0.1% TFA) were used as solvents in linear gradient mixtures. Peptide purification was performed by semi‐preparative HPLC using an XBridge Prep C18 column (19 × 250 mm, 10 µm particle size, flow rate of 20 mL min^−1). Solvents A and B were the same as those in the peptide analysis procedure. The peptides were dissolved in H2O to a final concentration of 5 × 10^−5 M. The purified peptide was detected using a mass spectrometer (6410 Triple Quad LC/MS, Agilent, USA) (Table S2, Supporting Information). The solvent was 80% methanol and 20% H2O (containing 0.1% formic acid). The CD spectra were obtained with a 1 mm quartz cuvette on a BRIGHT TIME Chirasca (Applied Photophysics, Britain) spectropolarimeter with a scan wavelength between 185–260 nm at 25 °C. The helicity of each peptide was calculated by the literature equation.^[ [24] ^]

[3] = tested on: MDA-MB-231-GFP tumor tissue; assay: LC/MS targeted lipid metabolome of xenograft tumor tissue; type: in vivo, mouse; conditions: compared with the control group
Description: (§1) To establish the bone metastasis tumor model, 1×10^5 cells were injected into the left ventricle of each mouse (7–8 weeks old), and surgery was monitored using a cardiac ultrasound instrument. The mice were randomly divided into three groups and treated with PBS (control group, n = 6), 5 mg kg^−1 ST‐CY14 (n = 6), and 10 mg kg^−1 ST‐CY14 (n = 6) Tumor cell metastasis was monitored using an in vivo imaging instrument (IVIS Spectrum, PerkinElmer, USA). by intraperitoneal injection of 20 mg kg^−1 D‐luciferin. The mice were treated with ST‐CY14 via intravenous injection using a 100 µL PBS solution every 2 days starting on the designated day after tumor cell injection. Bone tissue with MDA‐BoM‐1833 cell metastasis was obtained and stained for TRAP. The mice sera were collected and analyzed for BSP and β‐CTx levels using ELISA (Lengton, BPE10823, BPE10438). For the orthotopic xenograft tumor model, 3×10^6 cells were injected into the fourth pair of breast pads on the left side of the mouse (4–5 weeks old). The mice were treated with ST‐CY14 every two days once the tumor volume reached 30–50 mm^3, with the same groups as in the bone metastasis tumor model. […]

MCF7 cells [4] = assay: Long-chain fatty acid uptake assay (BODIPY FL C16); type: cell-based, human; conditions: 24 h, BODIPY FL C16 1 h
Description: 5×10^4 MCF7 cells were seeded in confocal dishes and cultured overnight at 37 °C and 5% CO2. The cells were then incubated with a basic DMEM medium containing various concentrations of peptides (1/2/5/10/20 × 10^−6 M for flow cytometry and 10 × 10^−6 M for immunofluorescence) for 24 h. Afterward, 1 µL BODIPY FL C16 (1 × 10^−6 M, Thermo Fisher, D3821) was added to the confocal dishes and incubated with the cells for 1 h. Following incubation, the cell nuclei were stained with Hoechst for 8 min. Uptake of FA was monitored using flow cytometry (CytoFLEX, Beckman Coulter, USA) and DeltaVision OMX (GE, USA).

MDA-MB-231-GFP xenograft = assay: MDA-MB-231-GFP orthotopic xenograft tumor model; type: in vivo, mouse
Excerpt: Female BALB/c mice (4–5 weeks old, 16–18 g) and BALB/c mice (7–8 weeks old, 18–20 g) were provided by Shanghai Slake Experimental Animal Co., Ltd., and housed under specific pathogen‐free conditions for use in orthotopic xenograft tumor model experiments and bone metastasis tumor model experiments. The animal experiment was approved by the ethical committee of Shanghai University of Traditional Chinese Medicine (approval number: PZSHUTCM220627036).
as §1, with “model. The tumors were collected and stained for H&E, Ki‐67, and TUNEL assays, which were conducted by Wuhan Servicebio Technology Co., Ltd. Major organs (heart, liver, spleen, lung, and kidney) were also collected for H&E analysis by Wuhan Servicebio Technology Co., Ltd. The Transcriptome and LC/MS targeted lipid metabolome were sequenced by OE Biotech, Inc., Shanghai, China.” for “model.”

SMILES: C[C@@H](O)[C@@H]1NC(=O)[C@H](CCCNC(=N)N)NC(=O)[C@H](CCCNC(=N)N)NC(=O)[C@@](C)(NC(=O)[C@H](Cc2ccccc2)NC(=O)CNC(=O)[C@H](CCCCN)NC(=O)[C@H](CS)NC(=O)CNC(=O)[C@H](CCC(=O)O)NC(=O)[C@@H](N)CS)CCCC=CCCC[C@@](C)(C(=O)N[C@@H](CCCNC(=N)N)C(=O)N[C@@H](Cc2ccc(O)cc2)C(=O)N[C@@H](Cc2ccc(O)cc2)C(=O)NCC(=O)N[C@@H](CCCNC(=N)N)C(=O)N[C@@H](CCCCN)C(=O)N[C@@H](CCCCN)C(=O)N[C@@H](CCCNC(=N)N)C(=O)N[C@@H](CCCNC(=N)N)C(=O)N[C@@H](CCC(N)=O)C(=O)N[C@@H](CCCNC(=N)N)C(=O)N[C@@H](CCCNC(=N)N)C(=O)N[C@@H](CCCNC(=N)N)C(N)=O)NC1=O [ST-CY14] (H-CEGCKGF[S5]RRT[S5]RYYGRKKRRQRRR-NH2; staple 8-12)
- Oxygen consumption rate (OCR) (MCF7 cells [1]): significantly reduced
- Cell viability / proliferation (MDA-MB-231 cells): significantly attenuated breast tumor cell proliferation
- α-Helicity (CD) [2]: 12.01%
- Relative abundance of lipid content (FA, PC, TAG, PE) in tumor tissue [3]: decreased
- FA uptake (flow cytometry) (MCF7 cells [4]; MCF7, 1-20 × 10^−6 M): dose‐dependent decrease in FA levels
- FA uptake (immunofluorescence) (MCF7 cells [4]; MCF7, 1 × 10^−5 M): inhibited FA uptake
- Body weight loss and signs of organ toxicity (MDA-MB-231-GFP xenograft; 5 and 10 mg kg^−1, tail vein, once every two days, thirty days, H&E of major organs): without significant body weight loss (Figure 6c) or other signs of organ toxicity
- Nur77, CD36 and FABP4 protein levels in tumors (Western blot) (MDA-MB-231-GFP xenograft; MDA-MB-231-GFP tumors): effectively increased Nur77 protein levels, and decreased CD36 and FABP4 protein levels
- Ki-67, H&E and TUNEL analysis of tumor sections (MDA-MB-231-GFP xenograft; compared with the control group, n = 3): reduced tumor cell proliferation, increased necrosis area and apoptosis
